Experimental data taken from ChEMBL document CHEMBL1139425, “Characterization of the binding properties of SIRT2 inhibitors with a N-(3-phenylpropenoyl)-glycine tryptamide backbone” (Bioorg Med Chem, 2008).

Assays:
[1] = molecular target: T1, NAD-dependent protein deacetylase sirtuin-2 (Homo sapiens) (UniProt Q8IXJ6); assay: Inhibition of recombinant GST-tagged SIRT2 at 200 uM by Fluor de Lys fluorescence assay
T1 sequence (whole entry): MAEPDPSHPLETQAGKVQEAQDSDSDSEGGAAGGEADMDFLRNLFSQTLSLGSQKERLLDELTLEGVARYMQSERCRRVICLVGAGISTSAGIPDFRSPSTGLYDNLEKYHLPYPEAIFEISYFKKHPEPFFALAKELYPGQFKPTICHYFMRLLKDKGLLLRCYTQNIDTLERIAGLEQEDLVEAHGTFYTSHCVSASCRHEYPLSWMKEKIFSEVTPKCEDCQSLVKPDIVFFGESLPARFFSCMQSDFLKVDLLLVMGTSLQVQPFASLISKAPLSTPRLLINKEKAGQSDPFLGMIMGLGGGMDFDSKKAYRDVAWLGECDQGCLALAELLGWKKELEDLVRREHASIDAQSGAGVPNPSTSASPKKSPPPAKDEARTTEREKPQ

[2] = molecular target: T2, NAD-dependent protein deacetylase sirtuin-2 (Homo sapiens, UniProt Q8IXJ6); assay: Inhibition of recombinant GST-tagged SIRT2 by Fluor de Lys fluorescence assay
T2 sequence (Q8IXJ6 whole entry): T1 sequence (whole entry)

SMILES	inhibition [1] [%]	IC50 [2] [µM]
O=C(/C=C/c1ccccc1)NCC(=O)NCCc1c[nH]c2ccc(OCc3ccccc3)cc12	32.9	
O=C(CCc1ccccc1)NCCc1c[nH]c2ccccc12	44.1	
O=C(NCCc1c[nH]c2ccc(OCc3ccccc3)cc12)[C@@H]1CCCN1C(=O)CCc1ccccc1	29.8	
C[C@H](NC(=O)/C=C/c1ccccc1)C(=O)NCCc1c[nH]c2ccccc12	59.6	109
O=C(/C=C/c1ccc(O)cc1)NCCc1c[nH]c2ccccc12	44.3	
CC(C)(NC(=O)/C=C/c1cccc([N+](=O)[O-])c1)C(=O)NCCc1c[nH]c2ccccc12	42.1	
CC(C)(NC(=O)/C=C/c1cccc(O)c1)C(=O)NCCc1c[nH]c2ccccc12	46.7	
CC(C)(NC(=O)CCc1ccccc1)C(=O)NCCc1c[nH]c2ccccc12	12.5	
CC(C)(NC(=O)/C=C/c1ccc(F)cc1)C(=O)NCCc1c[nH]c2ccccc12	61.3	105
CC(C)(NC(=O)CCc1ccc(O)cc1)C(=O)NCCc1c[nH]c2ccccc12	19.5	
COc1ccccc1/C=C/C(=O)NC(C)(C)C(=O)NCCc1c[nH]c2ccccc12	35	
COc1ccc2[nH]cc(CCNC(=O)CNC(=O)/C=C/c3ccccc3)c2c1	24.2	
C[C@H](NC(=O)/C=C/c1ccccc1)C(=O)NCCc1ccccc1	29.6	
C[C@H](NC(=O)CCc1ccccc1)C(=O)NCCc1c[nH]c2ccc(OCc3ccccc3)cc12	50.2	86
O=C(/C=C/c1ccccc1)NCCc1c[nH]c2ccccc12	58	173
COc1cccc(/C=C/C(=O)NC(C)(C)C(=O)NCCc2c[nH]c3ccccc23)c1	45.9	
CC(C)(NC(=O)/C=C/c1ccc(O)cc1)C(=O)NCCc1cccnc1	2	
O=C(/C=C/c1ccccc1)NCC(=O)NCCc1c[nH]c2ccccc12	22.7	
C[C@H](NC(=O)/C=C/c1ccccc1)C(=O)NCCc1c[nH]c2ccc(OCc3ccccc3)cc12	43.7	
CC(C)(NC(=O)/C=C/c1ccccc1)C(=O)NCCc1c[nH]c2ccccc12	49.5	100
O=C(NCCc1c[nH]c2ccccc12)[C@@H]1CCCN1C(=O)/C=C/c1ccccc1	36.6	
